{"source": "patent US20100267561A1", "about": "“HERBICIDAL PYRIDAZINONE DERIVATIVES” (priority 2007, published 2010)", "format_in_all_cases": "in vivo", "key": {"[1]": {"test_system": "umbrella sedge (Cyperus difformis)", "test": "Test B flooded paddy test plant response", "from_the_text": "(§1) Plant species in the flooded paddy test consisted of rice (Oryza sativa), umbrella sedge (Cyperus difformis), ducksalad (Heteranthera limosa) and barnyardgrass (Echinochloa crus-galli) grown to the 2-leaf stage for testing. At time of treatment, test pots were flooded to 3 cm above the soil surface, treated by application of test compounds directly to the paddy water, and then maintained at that water depth for the duration of the test. Treated plants and controls were maintained in a greenhouse for 13 to 15 days, after which time all species were compared to controls and visually evaluated. Plant response ratings, summarized in Table B, are based on a scale of 0 to 100 where 0 is no effect and 100 is complete control. A dash (-) response means no test result."}, "[2]": {"test_system": "barnyardgrass (Echinochloa crus-galli)", "test": "Test B flooded paddy test plant response", "from_the_text": "as §1"}, "[3]": {"test_system": "rice (Oryza sativa)", "test": "Test B flooded paddy test plant response", "from_the_text": "as §1"}, "[4]": {"test_system": "ducksalad (Heteranthera limosa)", "test": "Test B flooded paddy test plant response", "from_the_text": "as §1"}, "[5]": {"test_system": "giant foxtail (Setaria faberi)", "test": "Test A pre-/postemergence plant response", "from_the_text": "(§2) Seeds of species selected from barnyardgrass (Echinochloa crus-galli), large crabgrass (Digitaria sanguinalis), giant foxtail (Setaria faberi), blackgrass (Alopecurus myosuroides), canarygrass (Phalaris minor), morningglory (Ipomoea coccinea), pigweed (Amaranthus retroflexus), velvetleaf (Abutilon theophrasti), wheat (Triticum aestivum), and corn (Zea mays) were planted into a blend of loam soil and sand and treated preemergence with a directed soil spray using test chemicals formulated in a non-phytotoxic solvent mixture which included a surfactant. At the same time these species were also treated with postemergence applications of test chemicals formulated in the same manner.\n(§3) Plants ranged in height from 2 to 10 cm and were in the one- to two-leaf stage for the postemergence treatment. Treated plants and untreated controls were maintained in a greenhouse for approximately 10 days, after which time all treated plants were compared to untreated controls and visually evaluated for injury. Plant response ratings, summarized in Table A, are based on a 0 to 100 scale where 0 is no effect and 100 is complete control. A dash (-) response means no test results."}, "[6]": {"test_system": "pigweed (Amaranthus retroflexus)", "test": "Test A pre-/postemergence plant response", "from_the_text": "as §2, §3"}, "[7]": {"test_system": "large crabgrass (Digitaria sanguinalis)", "test": "Test A pre-/postemergence plant response", "from_the_text": "as §2, §3"}, "[8]": {"test_system": "barnyardgrass (Echinochloa crus-galli)", "test": "Test A pre-/postemergence plant response", "from_the_text": "as §2, §3"}, "[9]": {"test_system": "corn (Zea mays)", "test": "Test A pre-/postemergence plant response", "from_the_text": "as §2, §3"}, "[10]": {"test_system": "wheat (Triticum aestivum)", "test": "Test A pre-/postemergence plant response", "from_the_text": "as §2, §3"}, "[11]": {"test_system": "velvetleaf (Abutilon theophrasti)", "test": "Test A pre-/postemergence plant response", "from_the_text": "as §2, §3"}, "[12]": {"test_system": "morningglory (Ipomoea coccinea)", "test": "Test A pre-/postemergence plant response", "from_the_text": "as §2, §3"}, "[13]": {"test_system": "blackgrass (Alopecurus myosuroides)", "test": "Test A pre-/postemergence plant response", "from_the_text": "as §2, §3"}, "[14]": {"test_system": "canarygrass (Phalaris minor)", "test": "Test A pre-/postemergence plant response", "from_the_text": "as §2, §3"}, "[15]": {"settings": "Flood (flooded paddy test), 62 g ai/ha, scale 0 to 100, 0 no effect, 100 complete control"}, "[16]": {"settings": "Flood (flooded paddy test), 125 g ai/ha, scale 0 to 100, 0 no effect, 100 complete control"}, "[17]": {"settings": "Flood (flooded paddy test), 250 g ai/ha, scale 0 to 100, 0 no effect, 100 complete control"}, "[18]": {"settings": "Flood, 31 g ai/ha, scale 0 to 100"}, "[19]": {"settings": "Postemergence, 31 g ai/ha, 0 to 100 scale (0 no effect, 100 complete control)"}, "[20]": {"settings": "Postemergence, 125 g ai/ha, 0 to 100 scale, 0 no effect, 100 complete control"}, "[21]": {"settings": "Preemergence, 31 g ai/ha, 0 to 100 scale, 0 is no effect, 100 is complete control"}, "[22]": {"settings": "Preemergence, 125 g ai/ha, 0 to 100 scale (0 no effect, 100 complete control)"}}}
{"smiles": "CCc1cc(-c2ccc(Cl)s2)nn1-c1c(O)cnn(C)c1=O", "note": "[Compound 63]", "values": [{"measurement": "Plant response rating, Sedge, Umbrella", "setting": "[1]; [15]", "result": 0}, {"measurement": "Plant response rating, Sedge, Umbrella", "setting": "[1]; [16]", "result": 0}, {"measurement": "Plant response rating, Sedge, Umbrella", "setting": "[1]; [17]", "result": 0}, {"measurement": "Plant response rating, Sedge, Umbrella", "setting": "[1]; [18]", "result": 0}, {"measurement": "Plant response rating, Barnyardgrass", "setting": "[2]; [15]", "result": 0}, {"measurement": "Plant response rating, Barnyardgrass", "setting": "[2]; [16]", "result": 0}, {"measurement": "Plant response rating, Barnyardgrass", "setting": "[2]; [17]", "result": 0}, {"measurement": "Plant response rating, Barnyardgrass", "setting": "[2]; [18]", "result": 0}, {"measurement": "Plant response rating, Rice", "setting": "[3]; [15]", "result": 0}, {"measurement": "Plant response rating, Rice", "setting": "[3]; [16]", "result": 0}, {"measurement": "Plant response rating, Rice", "setting": "[3]; [17]", "result": 0}, {"measurement": "Plant response rating, Rice", "setting": "[3]; [18]", "result": 0}, {"measurement": "Plant response rating, Ducksalad", "setting": "[4]; [15]", "result": 0}, {"measurement": "Plant response rating, Ducksalad", "setting": "[4]; [16]", "result": 0}, {"measurement": "Plant response rating, Ducksalad", "setting": "[4]; [17]", "result": 0}, {"measurement": "Plant response rating, Ducksalad", "setting": "[4]; [18]", "result": 0}, {"measurement": "Plant response rating, Foxtail, Giant", "setting": "[5]; [19]", "result": 0}, {"measurement": "Plant response rating, Foxtail, Giant", "setting": "[5]; [20]", "result": 60}, {"measurement": "Plant response rating, Foxtail, Giant", "setting": "[5]; [21]", "result": 0}, {"measurement": "Plant response rating, Foxtail, Giant", "setting": "[5]; [22]", "result": 0}, {"measurement": "Plant response rating, Pigweed", "setting": "[6]; [19]", "result": 0}, {"measurement": "Plant response rating, Pigweed", "setting": "[6]; [20]", "result": 0}, {"measurement": "Plant response rating, Pigweed", "setting": "[6]; [21]", "result": 0}, {"measurement": "Plant response rating, Pigweed", "setting": "[6]; [22]", "result": 0}, {"measurement": "Plant response rating, Crabgrass, Large", "setting": "[7]; [19]", "result": 10}, {"measurement": "Plant response rating, Crabgrass, Large", "setting": "[7]; [20]", "result": 10}, {"measurement": "Plant response rating, Crabgrass, Large", "setting": "[7]; [21]", "result": 0}, {"measurement": "Plant response rating, Crabgrass, Large", "setting": "[7]; [22]", "result": 0}, {"measurement": "Plant response rating, Barnyardgrass", "setting": "[8]; [19]", "result": 0}, {"measurement": "Plant response rating, Barnyardgrass", "setting": "[8]; [20]", "result": 20}, {"measurement": "Plant response rating, Barnyardgrass", "setting": "[8]; [21]", "result": 0}, {"measurement": "Plant response rating, Barnyardgrass", "setting": "[8]; [22]", "result": 10}, {"measurement": "Plant response rating, Corn", "setting": "[9]; [19]", "result": 0}, {"measurement": "Plant response rating, Corn", "setting": "[9]; [20]", "result": 30}, {"measurement": "Plant response rating, Corn", "setting": "[9]; [21]", "result": 0}, {"measurement": "Plant response rating, Corn", "setting": "[9]; [22]", "result": 0}, {"measurement": "Plant response rating, Wheat", "setting": "[10]; [19]", "result": 0}, {"measurement": "Plant response rating, Wheat", "setting": "[10]; [20]", "result": 20}, {"measurement": "Plant response rating, Wheat", "setting": "[10]; [21]", "result": 0}, {"measurement": "Plant response rating, Wheat", "setting": "[10]; [22]", "result": 0}, {"measurement": "Plant response rating, Velvetleaf", "setting": "[11]; [19]", "result": 0}, {"measurement": "Plant response rating, Velvetleaf", "setting": "[11]; [20]", "result": 0}, {"measurement": "Plant response rating, Velvetleaf", "setting": "[11]; [21]", "result": 0}, {"measurement": "Plant response rating, Velvetleaf", "setting": "[11]; [22]", "result": 0}, {"measurement": "Plant response rating, Morningglory", "setting": "[12]; [19]", "result": 0}, {"measurement": "Plant response rating, Morningglory", "setting": "[12]; [20]", "result": 0}, {"measurement": "Plant response rating, Morningglory", "setting": "[12]; [21]", "result": 0}, {"measurement": "Plant response rating, Morningglory", "setting": "[12]; [22]", "result": 0}]}
{"smiles": "Cc1c(Br)c(-c2ccc(Br)cc2)nn1-c1c(O)cnn(C)c1=O", "note": "[Compound 70]", "values": [{"measurement": "Plant response rating, Foxtail, Giant", "setting": "[5]; [19]", "result": 0}, {"measurement": "Plant response rating, Foxtail, Giant", "setting": "[5]; [20]", "result": 0}, {"measurement": "Plant response rating, Foxtail, Giant", "setting": "[5]; [21]", "result": 0}, {"measurement": "Plant response rating, Foxtail, Giant", "setting": "[5]; [22]", "result": 0}, {"measurement": "Plant response rating, Pigweed", "setting": "[6]; [19]", "result": 0}, {"measurement": "Plant response rating, Pigweed", "setting": "[6]; [20]", "result": 0}, {"measurement": "Plant response rating, Pigweed", "setting": "[6]; [21]", "result": 0}, {"measurement": "Plant response rating, Pigweed", "setting": "[6]; [22]", "result": 0}, {"measurement": "Plant response rating, Crabgrass, Large", "setting": "[7]; [19]", "result": 0}, {"measurement": "Plant response rating, Crabgrass, Large", "setting": "[7]; [20]", "result": 0}, {"measurement": "Plant response rating, Crabgrass, Large", "setting": "[7]; [21]", "result": 0}, {"measurement": "Plant response rating, Crabgrass, Large", "setting": "[7]; [22]", "result": 0}, {"measurement": "Plant response rating, Barnyardgrass", "setting": "[8]; [19]", "result": 0}, {"measurement": "Plant response rating, Barnyardgrass", "setting": "[8]; [20]", "result": 50}, {"measurement": "Plant response rating, Barnyardgrass", "setting": "[8]; [21]", "result": 0}, {"measurement": "Plant response rating, Barnyardgrass", "setting": "[8]; [22]", "result": 0}, {"measurement": "Plant response rating, Blackgrass", "setting": "[13]; [19]", "result": 0}, {"measurement": "Plant response rating, Blackgrass", "setting": "[13]; [20]", "result": 10}, {"measurement": "Plant response rating, Blackgrass", "setting": "[13]; [21]", "result": 0}, {"measurement": "Plant response rating, Blackgrass", "setting": "[13]; [22]", "result": 0}, {"measurement": "Plant response rating, Canarygrass", "setting": "[14]; [19]", "result": 0}, {"measurement": "Plant response rating, Canarygrass", "setting": "[14]; [20]", "result": 0}, {"measurement": "Plant response rating, Canarygrass", "setting": "[14]; [21]", "result": 0}, {"measurement": "Plant response rating, Canarygrass", "setting": "[14]; [22]", "result": 0}, {"measurement": "Plant response rating, Corn", "setting": "[9]; [19]", "result": 0}, {"measurement": "Plant response rating, Corn", "setting": "[9]; [20]", "result": 20}, {"measurement": "Plant response rating, Corn", "setting": "[9]; [21]", "result": 0}, {"measurement": "Plant response rating, Corn", "setting": "[9]; [22]", "result": 0}, {"measurement": "Plant response rating, Wheat", "setting": "[10]; [19]", "result": 0}, {"measurement": "Plant response rating, Wheat", "setting": "[10]; [20]", "result": 0}, {"measurement": "Plant response rating, Wheat", "setting": "[10]; [21]", "result": 0}, {"measurement": "Plant response rating, Wheat", "setting": "[10]; [22]", "result": 0}]}
